One may read the EC50 as the concentration needed to bring the measured effect to its halfway point. Low values mean higher potency in that assay, high ones lower potency in that assay.

For nine molecules, IC50 and EC50 results are on record in patent US10981932B2, “Macrocyclic indole derivatives” (Bayer Aktiengesellschaft, priority 2016, dated 2021).

Where a name gives a salt, the structure may show the parent alone. Read-outs that look alike come from different tables or passages of the source.

The target of one data set is MCL-1 (Homo sapiens, UniProt Q07820). The data set is described as follows: Protein-protein interaction assay MCL-1/Noxa BH3 peptide (MCL-1 assay), TR-FRET. The settings on record: MBP-MCL-1 / Noxa BH3-derived peptide, median. Type of data set: binding. In short, it runs like this: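 IC50 came from a 4-parameter fit of the normalized 665/620 nm TR-FRET ratio (anti-MBP Eu-cryptate/streptavidin-XL665). Compounds (0.1 nM–20 μM, duplicates) were preincubated 10 min at 22 °C with 1 nM MBP-MCL-1 in pH 7 Tris/NaCl/KF buffer, then read after 1 h at 22 °C plus overnight at 4 °C.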
For orientation: In TR-FRET formats the signal depends on donor and acceptor labels being close together.

Data set [1] has as its system SUDHL5. Kind of data set: Induction of caspase-3/7 activity (Caspase-Glo 3/7), SUDHL5. Type of data set: cell-based. The settings on record: caspase-3/7 induction, SUDHL5 cells, 3 h treatment; median. In short, it runs like this: (§1)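 DLBCL lines SUDHL5 and SUDHL10 treated with compounds for 3 h at 37 °C; caspase-3/7 activity read by Caspase-Glo 3/7 luminescence. Medium-only background subtracted; EC50 fitted with bottom fixed at 1 and top fixed at the reference compound's maximal induction.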

For data set [2], the system named is SUDHL10. Kind of data set: Induction of caspase-3/7 activity (Caspase-Glo 3/7), SUDHL10. In kind it is cell-based. The settings on record: caspase-3/7 induction, SUDHL10 cells, 3 h treatment, median. In short, it runs like this:
as §1

Data set [3] concerns SUDHL5. Kind of data set: Anti-proliferative effect (CellTiter-Glo, 72 h), SUDHL5. Type of data set: cell-based. The settings on record: SUDHL5 cells, antiproliferation, median, read-out: Antiproli SUDHL5 [M] (median). In short, it runs like this: (§2)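 72 h compound treatment, 37 °C humidified; CellTiter-Glo added, 10 min incubation, luminescence read; day 0 plate read in parallel for baseline.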
(ATP-based viability assays read luminescence as a measure of living cells.)

Another data set has as its system A2780. The data set is described as follows: Anti-proliferative effect (CellTiter-Glo, 72 h), A2780. The settings on record: A2780 cells, median, read-out: IC50 antiproliferation assay A2780 [M] (median). Type of data set: cell-based. In a few lines:
as §2

For a further data set, the system named is MV-4-11. The data set is described as follows: Anti-proliferative effect (CellTiter-Glo, 72 h), MV-4-11. Type of data set: cell-based. The settings on record: MV-4-11 cells, median, read-out: IC50 antiproliferation assay MV-4-11 [M] (median). In a few lines:
as §2

The test system of data set [4] is SUDHL5. The data set is described as follows: Induction of cytotoxicity (CellTiter-Glo, 5 h), SUDHL5. The settings on record: read-out: Cytotox SUDHL5 [M] (median), SUDHL5 cells, cytotoxicity induction, CellTiter-Glo, median.
The test system of data set [5] is SUDHL10. The data set is described as follows: Induction of cytotoxicity (CellTiter-Glo, 5 h), SUDHL10.
[6] abbreviates: Homo sapiens, SU-DHL-5, 72 h, 72 h.
Where [7] appears, read: Homo sapiens, SU-DHL10, 5 h, read-out: Cytotox SUDHL10 [M] (median), SUDHL10 cells, cytotoxicity induction, CellTiter-Glo, 5 h, median.
Setting [8] is: read-out: Cytotox SUDHL10 [M] (median), SUDHL10 cells, cytotoxicity induction, CellTiter-Glo, 5 h, median.
Where [9] appears, read: read-out: Cytotox SUDHL10 [M] (median), SUDHL10 cells, cytotoxicity induction, CellTiter-Glo, 5 h incubation, median.

MCL-1, sequence (Q07820 whole entry): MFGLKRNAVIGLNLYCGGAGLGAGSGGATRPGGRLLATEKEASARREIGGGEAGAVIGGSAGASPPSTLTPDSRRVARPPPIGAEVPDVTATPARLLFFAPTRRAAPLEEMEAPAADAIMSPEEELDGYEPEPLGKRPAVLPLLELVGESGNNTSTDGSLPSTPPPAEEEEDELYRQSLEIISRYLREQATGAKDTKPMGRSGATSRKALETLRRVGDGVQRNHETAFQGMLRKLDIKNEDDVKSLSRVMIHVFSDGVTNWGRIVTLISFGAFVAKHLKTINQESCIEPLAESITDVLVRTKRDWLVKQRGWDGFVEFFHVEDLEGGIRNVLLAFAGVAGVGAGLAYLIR

In the case of `Cc1c2c(nn1C)COCCCCn1c(C(=O)O)c(CCCOc3cccc4cc(Cl)ccc34)c3cccc-2c31` (single isomer, unassigned) [Example 296, (+)-7-{3-[(6-chloronaphthalen-1-yl)oxy]propyl}-2,3-dimethyl-2,10,11,12,13,15-hexahydropyrazolo[4′,3′:9,10][1,6]Oxazacycloundecino[8,7,6-hi]indole-8-carboxylic acid-N-ethylethanamine Salt], the IC50 against MCL-1 was 0.00331 µM; in the data set on SUDHL5 [3] (setting [6]), 5.2e-06 M; in the data set with A2780 (Homo sapiens, A2780, 72 h) it was 2.07e-05 M; with MV-4-11 (Homo sapiens, MV4-11, 72 h) it was 1.52e-05 M; in the data set on SUDHL5 [4] (5 h) it was 5.31e-06 M; in the data set on SUDHL10 [5] (setting [7]) it was 1.43e-05 M. The EC50 in the data set with SUDHL5 [1] stood at 3.23 µM; in the data set with SUDHL10 [2] (Homo sapiens, SU-DHL10, 3 h) it was 18.7 µM.

Turning to `Cc1c2c(nn1C)COCCCCn1c(C(=O)O)c(CCCOc3cccc4cc(Cl)ccc34)c3cccc-2c31` (single isomer, unassigned) [Example 297, (−)-7-{3-[(6-chloronaphthalen-1-yl)oxy]propyl}-2,3-dimethyl-2,10,11,12,13,15-hexahydropyrazolo[4′3′:9,10][1,6]oxazacycloundecino[8,7,6-hi]indole-8-carboxylic acid-N-ethylethanamine Salt], the IC50 at MCL-1 is 0.126 µM; in the data set on SUDHL5 [3] (72 h) it was 5.16e-06 M; in the data set with A2780 it was 1.33e-05 M; in the data set on MV-4-11 it was 1.9e-05 M; in the data set on SUDHL5 [4] (5 h), 2.83e-05 M; with SUDHL10 [5] (setting [8]), 2.77e-05 M. The EC50 with SUDHL5 [1] and in the data set with SUDHL10 [2] was over 33 µM throughout.

For `CCc1nn(C)c2c1-c1cccc3c(CCCOc4cccc5c(F)cccc45)c(C(=O)O)n(c13)CCCCOC2` (single isomer, unassigned) [Example 299, 3-ethyl-7-{3-[(5-fluoronaphthalen-1-yl)oxy]propyl}-1-methyl-1,10,11,12,13,15-hexahydropyrazolo[4′,3′:9,10][1,6]oxazacycloundecino[8,7,6-hi]indole-8-carboxylic Acid], the IC50 was 0.166 µM against MCL-1; 7.39e-06 M in the data set on SUDHL5 [3] (setting [6]); 2.32e-05 M in the data set on A2780 (Homo sapiens, A2780, 72 h); 2.63e-05 M in the data set on MV-4-11 (Homo sapiens, MV4-11, 72 h); over 3.3e-05 M with SUDHL5 [4] (5 h); over 3.3e-05 M in the data set on SUDHL10 [5] (setting [7]). The EC50 is over 33 µM in the data set on SUDHL5 [1] and over 33 µM in the data set with SUDHL10 [2] (Homo sapiens, SU-DHL10, 3 h).

On to `CCc1nn(C)c2c1-c1cccc3c(CCCOc4cccc5c(F)cccc45)c(C(=O)O)n(c13)CCCCOC2` (single isomer, unassigned) [Example 300, 3-ethyl-7-{3-[(5-fluoronaphthalen-1-yl)oxy]propyl}-1-methyl-1,10,11,12,13,15-hexahydropyrazolo[4′3′:9,10][1,6]oxazacycloundecino[8,7,6-hi]indole-Carboxylic Acid], for which the IC50 at MCL-1 is 0.00127 µM; in the data set with SUDHL5 [3] (72 h), 5.13e-06 M; in the data set on A2780, over 3.3e-05 M; in the data set with MV-4-11 it was 2.15e-05 M; in the data set with SUDHL5 [4] (5 h) it was 5.8e-06 M; with SUDHL10 [5] (setting [8]) it was 2.25e-05 M. The EC50 was found to be 3.93 µM in the data set with SUDHL5 [1] and 20.7 µM in the data set on SUDHL10 [2].

As to `Cn1nc2c(c1CN1CCOCC1)-c1cccc3c(CCCOc4cccc5ccccc45)c(C(=O)O)n(c13)CCCCOC2` (single isomer, unassigned; enantiomer 1) [Example 079, 2-methyl-3-(morpholin-4-ylmethyl)-7-[3-(naphthalen-1-yloxy)propyl]-2,10,11,12,13,15-hexahydropyrazolo[4′,3′:9,10][1,6]oxazacycloundecino[8,7,6-hi]indole-8-carboxylic acid-N-ethylethanamine Salt (Enantiomer 1)], the IC50 came out at 0.00325 µM on MCL-1; 6.7e-06 M in the data set with SUDHL5 [3] (72 h incubation); 1.66e-05 M in the data set on A2780 (Homo sapiens, A2780, 72 h); 2.37e-06 M with MV-4-11; 4.24e-06 M in the data set on SUDHL5 [4] (5 h incubation); 8.83e-06 M in the data set with SUDHL10 [5] (setting [9]). Moreover, the half-maximal effective concentration (EC50) in the data set with SUDHL5 [1] came to 3.85 µM; with SUDHL10 [2] it was 9.85 µM.

As for `COCCn1nc(C2CC2)c2c1COCCCCn1c(C(=O)O)c(CCCOc3cccc4c3CCCC4)c3cccc-2c31` (single isomer, unassigned; enantiomer 1) [Example 165, 3-Cyclopropyl-1-(2-methoxyethyl)-7-[3-(5,6,7,8-tetrahydronaphthalen-1-yloxy)propyl]-1,10,11,12,13,15-hexahydropyrazolo[4′,3′:9,10][1,6]oxazacycloundecino[8,7,6-hi]indole-8-carboxylic acid-N-ethylethanamine Salt (Enantiomer 1)], the IC50 is 0.00289 µM at MCL-1; 1.13e-05 M with SUDHL5 [3] (Homo sapiens, SU-DHL-5, 72 h, 72 h incubation); 2.15e-05 M in the data set on A2780 (Homo sapiens, A2780, 72 h); 8.15e-06 M in the data set with MV-4-11; 5.71e-06 M with SUDHL5 [4] (5 h incubation); 2.37e-05 M with SUDHL10 [5] (Homo sapiens, SU-DHL10, 5 h, read-out: Cytotox SUDHL10 [M] (median), SUDHL10 cells, cytotoxicity induction, CellTiter-Glo, 5 h incubation, median). For the same molecule, the EC50 in the data set with SUDHL5 [1] stood at 5.25 µM; in the data set with SUDHL10 [2] (Homo sapiens, SU-DHL10, 3 h), 19.1 µM.

`CCc1c2c(nn1CCN1CCOCC1)COCCCCn1c(C(=O)O)c(CCCOc3cccc4ccccc34)c3ccc(C)c-2c31` (single isomer, unassigned; enantiomer 1) [Example 205, 3-ethyl-4-methyl-[2-(2-(morpholin-4-yl)ethyl]-7-[3-(naphthalen-1-yloxy)propyl]-2,10,11,12,13,15-hexahydropyrazolo[4′3′:9,10][1,6]oxazacycloundecino[8,7,6-hi]indole-8-carboxylic Acid (Enantiomer 1)]: the IC50 on MCL-1 is 0.00165 µM; with SUDHL5 [3] (72 h incubation), 2e-06 M; in the data set on A2780, 1.03e-05 M; with MV-4-11, 2.83e-06 M; with SUDHL5 [4] (5 h incubation), 1.38e-06 M; with SUDHL10 [5] (setting [9]), 2.92e-06 M. The EC50 amounted to 1.33 µM in the data set on SUDHL5 [1] and 2.49 µM in the data set on SUDHL10 [2].

`Cc1c2c(nn1C)COCCCCn1c(C(=O)O)c(CCCOc3cccc4cc(F)ccc34)c3cccc-2c31` (single isomer, unassigned; enantiomer 1) [Example 303, (−)-7-{3-((6-fluoronaphthalen-1-yl)oxypropyl}-2,3-dimethyl-2,10,11,12,13,15-hexahydropyrazolo[4′,3′:9,10][1,6]oxazacycloundecino[8,7,6-hi]indole-8-carboxylic Acid (Enantiomer 1)]: the IC50 is 0.0268 µM against MCL-1; 6.97e-06 M with SUDHL5 [3] (72 h); 2.4e-05 M with A2780; 2.61e-05 M with MV-4-11; over 3.3e-05 M with SUDHL5 [4] (5 h); over 3.3e-05 M in the data set with SUDHL10 [5] (setting [8]). Besides, the EC50 with SUDHL5 [1] and in the data set with SUDHL10 [2] was over 33 µM in each case.

Consider `Cn1nc(COCc2ccc(C#N)cc2)c2c1COCCCCn1c(C(=O)O)c(CCCOc3cccc4ccccc34)c3cccc-2c31` (single isomer, unassigned; enantiomer 1) [Example 347, 3-({[(4-cyanobenzyl)oxy]methyl}-1-methyl-7-[3-(naphthalen-1-yloxy)propyl]-1,10,11,12,13,15-hexahydropyrazolo[4′,3′:9,101][1,6]oxazacycloundecino[8,7,6-hi]indole-8-carboxylic acid-N-ethylethanamine Salt (Enantiomer 1)], for which the IC50 was 0.343 µM at MCL-1; 4.2e-06 M with SUDHL5 [3] (setting [6]); 9.45e-06 M in the data set with A2780 (Homo sapiens, A2780, 72 h); 1.2e-05 M with MV-4-11; over 3.3e-05 M with SUDHL5 [4] (5 h); over 3.3e-05 M in the data set with SUDHL10 [5] (setting [7]). The EC50 in the data set on SUDHL5 [1] is over 33 µM; with SUDHL10 [2] (Homo sapiens, SU-DHL10, 3 h), over 33 µM.
